BigSolDB 2.1

Cc1c(N(C)CS(=O)(=O)[O-])c(=O)n(-c2ccccc2)n1C.O.[Na+]
solubility (mole fraction)
Conditions | in acetone | in ethanol | in ethyl acetate | in isopropanol | in methanol | in methyl acetate | in n-butanol | in n-propanol | in sec-butanol | in water
293.15 K | 0.0001 | 0.0032 | 0.0001 | 0.0003 | 0.0278 | 0.0001 | 0.0003 | 0.0011 | 0.0002 | 0.0538
298.15 K | 0.0001 | 0.0037 | 0.0001 | 0.0004 | 0.0318 | 0.0001 | 0.0004 | 0.0013 | 0.0003 | 0.0576
303.05 K | 0.0002 | 0.0042 | 0.0001 | 0.0005 | 0.0363 | 0.0001 | 0.0005 | 0.0016 | 0.0004 | 0.0615
308.05 K | 0.0002 | 0.0049 | 0.0002 | 0.0006 | 0.0408 | 0.0001 | 0.0007 | 0.0019 | 0.0006 | 0.0656
313.05 K | 0.0003 | 0.0056 | 0.0002 | 0.0008 | 0.0475 | 0.0002 | 0.0009 | 0.0023 | 0.0007 | 0.0697
318.05 K | 0.0003 | 0.0064 | 0.0003 | 0.0009 | 0.0521 | 0.0002 | 0.0012 | 0.0028 | 0.001 | 0.0738
323.05 K | 0.0004 | 0.0073 | 0.0003 | 0.0011 | 0.058 | 0.0003 | 0.0015 | 0.0034 | 0.0013 | 0.0782
327.95 K | 0.0005 | 0.0082 | 0.0004 | 0.0014 | 0.0634 | 0.0004 | 0.0019 | 0.004 | 0.0016 | 0.0825
332.85 K | 0.0006 | 0.0092 | 0.0005 | 0.0016 | 0.0688 | 0.0005 | 0.0024 | 0.0047 | 0.0021 | 0.087
